Laboratory results published in patent US10231980B2, “Cortexolone 17alpha-benzoate for use in the treatment of tumours” (COSMO TECHNOLOGIES LTD., priority 2014, dated 2019).
Where two headings read alike, the source gives them in different places.

Legend:
MCF7 = experiment: In vitro proliferation / cytotoxic assay on breast cancer cells (Examples 14, 25); settings: for effect on viability, in words: MCF7
Description: (§1) Data shown in Table I were fitted through sigmoidal dose response curves and analyzed using Prizm statistical.
(§2) For the cytotoxic assay, cells were seeded in 96-well flat bottom culture plates in media containing charcoal stripped serum. After 24 hours, test compounds were added to the cells. DMSO was used as the vehicle negative control and RU486 as the positive control. After 72 hour incubation, cells were harvested and lysed to determine cell viability using the Cell Titer Glow assay.

MDA-MB-231 = experiment: as above; type: cell-based; settings: Homo sapiens; MDA-MB-231; at 100 μM; read-out: maximum inhibition of viability
Description: as §1, §2

stimulated PBMC = experiment: IC50 on stimulated (actively dividing) PBMC; type: cell-based, human; settings: PBMC Stim; Table IV
PC3 = experiment: ATP-dependent cell viability assay (Cell Titer Glo), Example 12; settings: for IC50: Homo sapiens
Excerpt: as §1

LNCaP = experiment: as above; settings: for IC50: Homo sapiens, LNCaP
Excerpt: as §1

MiaPaca2 = experiment: as above; settings: human, 3 days
Excerpt: as §1

Panc1 = experiment: as above; settings: human, 3 days
Excerpt: as §1

HT29 = experiment: MTT colorimetric assay on epithelial intestinal cancer cells; type: cell-based; settings: for IC50: Homo sapiens, HT-29, HT29
Description: The experiment was performed to test and define anticancer activity in vitro of Cortexolone 17α-benzoate and cortexolone 17α-valerate, 21-propionate on cell lines representatives of epithelial intestinal tumours, namely HT29. The experiment method consisted in: • 1. Monolayer HT-29 cells were plated in: 96-wells plates at the density of 2×10^4 cells/mL. The cells plated were kept at 37° C. in 5% CO2 and left to attach for 24 h. • 2. […] After 72 h of treatment, the MTT colorimetric assay was performed.

7 cancer cell lines = experiment: Therapeutic index over a panel of cancer cell lines; type: cell-based; settings: average over the cancer cell lines of Table VII
Description: The compound toxicity was determined as follow:
Therapeutic Index=Safety/Potency=IC50 stimulated PBMC/IC50 cancer cell

[1] = tested on: caspases 8, 9, 3/7 in MiaPaca2 cells; experiment: Caspase 8, 9 and 3/7 activity; type: cell-based
Description: To better analyze the phenomenon, the enzymatic activity of Caspase 8 (initiator caspase for Extrinsic Pathway) and Caspase 9 (initiator caspase for Intrinsic Pathway) and of Caspases 3 and 7 (effector caspases) were measured.
Gemcitabine (a known pancreatic cancer chemotherapeutic agent) and DMSO were used as positive and negative controls, respectively. There were three incubation time points: 8 hours, 24 hours, and 48 hours. After each time point, cells were lysed in multiplex buffer containing the caspase 3/7 substrate combined with either caspase 8 or caspase 9 reagents, which contain stable luciferase in proprietary buffers. The lysates were transferred to white opaque 96-well plates before measuring luminescence on a Tecan Safire instrument. Parallel plates treated identically were used to determine cell viability. All caspase activities were corrected for the number of viable cells.

## CC#C[C@]1(O)CC[C@H]2[C@@H]3CCC4=CC(=O)CCC4=C3[C@@H](c3ccc(N(C)C)cc3)C[C@@]21C [RU486, Mifepristone, reference compound]
MCF7
  effect on viability, in words: does not affect
MCF7; MCF7 (ER+PR+GR+/−), 72 hour, Table VI
  IC50: Not active
MDA-MB-231
  cytotoxicity at 100 µM: 25%

## CCCCC(=O)O[C@]1(C(=O)CO)CC[C@H]2[C@@H]3CCC4=CC(=O)CC[C@]4(C)[C@H]3CC[C@@]21C [CB-03-05, cortexolone 17α-valerate]
MCF7
  effect on viability, in words: only active in MCF7
MCF7; human, 3 days
  Therapeutic Index = IC50 resting PBMC/IC50 cancer cell: 3
  Therapeutic Index = IC50 stimulated PBMC/IC50 cancer cell: 3
Stimulated PBMC
  Therapeutic Index = IC50 resting PBMC/IC50 cancer cell: 1
PC3; PC-3, 72 h, PC3, Tables I and II, titrated 3 uM to 200 uM, 3 days
  IC50: 170 µM
PC3; PC-3, read-out: In vitro proliferation IC50, PC3, Table IV
  IC50: 170 µM
PC3; PC-3, read-out: in vitro proliferation IC50, PC3, Table III
  IC50: 170 µM
PC3; human, 3 days
  Therapeutic Index = IC50 resting PBMC/IC50 cancer cell: 1
  Therapeutic Index = IC50 stimulated PBMC/IC50 cancer cell: 1
LNCaP
  IC50: 32 µM
LNCaP; 72 h
  IC50: 32 µM
LNCaP; read-out: In vitro proliferation IC50
  IC50: 32 µM
LNCaP; read-out: in vitro proliferation IC50
  IC50: 32 µM
LNCaP; human, 3 days
  Therapeutic Index = IC50 resting PBMC/IC50 cancer cell: 4
  Therapeutic Index = IC50 stimulated PBMC/IC50 cancer cell: 4
MiaPaca2
  Therapeutic Index = IC50 resting PBMC/IC50 cancer cell: 2
  Therapeutic Index = IC50 stimulated PBMC/IC50 cancer cell: 2
Panc1
  Therapeutic Index = IC50 resting PBMC/IC50 cancer cell: 2
  Therapeutic Index = IC50 stimulated PBMC/IC50 cancer cell: 2
HT29; Table III, read-out: in vitro proliferation IC50
  IC50: 35 µM
HT29; Table IV, read-out: In vitro proliferation IC50
  IC50: 35 µM
HT29; human, 72 h
  Therapeutic Index = IC50 resting PBMC/IC50 cancer cell: 4
  Therapeutic Index = IC50 stimulated PBMC/IC50 cancer cell: 4
7 cancer cell lines
  Therapeutic Index = IC50 stimulated PBMC/IC50 cancer cell, AVERAGE: 3
[1]
  profile for caspase activation: does not show a good profile for caspase activation
